{
  "source": "paper PMC10110893",
  "about": "“[…]-derived synthetic cannabinoids inhibit T-type calcium channels with divergent effects on seizures in rodent models of epilepsy” (Frontiers in Physiology, 2023)",
  "key": {"human Cav3.2": {"target": "T1, human Cav3.2 (Homo sapiens, UniProt O95180)", "T1 construct": "expressed in transfected cells; host or cells: HEK293 FlpIn T-Rex cells (Invitrogen)", "T1 sequence (O95180 whole entry)": "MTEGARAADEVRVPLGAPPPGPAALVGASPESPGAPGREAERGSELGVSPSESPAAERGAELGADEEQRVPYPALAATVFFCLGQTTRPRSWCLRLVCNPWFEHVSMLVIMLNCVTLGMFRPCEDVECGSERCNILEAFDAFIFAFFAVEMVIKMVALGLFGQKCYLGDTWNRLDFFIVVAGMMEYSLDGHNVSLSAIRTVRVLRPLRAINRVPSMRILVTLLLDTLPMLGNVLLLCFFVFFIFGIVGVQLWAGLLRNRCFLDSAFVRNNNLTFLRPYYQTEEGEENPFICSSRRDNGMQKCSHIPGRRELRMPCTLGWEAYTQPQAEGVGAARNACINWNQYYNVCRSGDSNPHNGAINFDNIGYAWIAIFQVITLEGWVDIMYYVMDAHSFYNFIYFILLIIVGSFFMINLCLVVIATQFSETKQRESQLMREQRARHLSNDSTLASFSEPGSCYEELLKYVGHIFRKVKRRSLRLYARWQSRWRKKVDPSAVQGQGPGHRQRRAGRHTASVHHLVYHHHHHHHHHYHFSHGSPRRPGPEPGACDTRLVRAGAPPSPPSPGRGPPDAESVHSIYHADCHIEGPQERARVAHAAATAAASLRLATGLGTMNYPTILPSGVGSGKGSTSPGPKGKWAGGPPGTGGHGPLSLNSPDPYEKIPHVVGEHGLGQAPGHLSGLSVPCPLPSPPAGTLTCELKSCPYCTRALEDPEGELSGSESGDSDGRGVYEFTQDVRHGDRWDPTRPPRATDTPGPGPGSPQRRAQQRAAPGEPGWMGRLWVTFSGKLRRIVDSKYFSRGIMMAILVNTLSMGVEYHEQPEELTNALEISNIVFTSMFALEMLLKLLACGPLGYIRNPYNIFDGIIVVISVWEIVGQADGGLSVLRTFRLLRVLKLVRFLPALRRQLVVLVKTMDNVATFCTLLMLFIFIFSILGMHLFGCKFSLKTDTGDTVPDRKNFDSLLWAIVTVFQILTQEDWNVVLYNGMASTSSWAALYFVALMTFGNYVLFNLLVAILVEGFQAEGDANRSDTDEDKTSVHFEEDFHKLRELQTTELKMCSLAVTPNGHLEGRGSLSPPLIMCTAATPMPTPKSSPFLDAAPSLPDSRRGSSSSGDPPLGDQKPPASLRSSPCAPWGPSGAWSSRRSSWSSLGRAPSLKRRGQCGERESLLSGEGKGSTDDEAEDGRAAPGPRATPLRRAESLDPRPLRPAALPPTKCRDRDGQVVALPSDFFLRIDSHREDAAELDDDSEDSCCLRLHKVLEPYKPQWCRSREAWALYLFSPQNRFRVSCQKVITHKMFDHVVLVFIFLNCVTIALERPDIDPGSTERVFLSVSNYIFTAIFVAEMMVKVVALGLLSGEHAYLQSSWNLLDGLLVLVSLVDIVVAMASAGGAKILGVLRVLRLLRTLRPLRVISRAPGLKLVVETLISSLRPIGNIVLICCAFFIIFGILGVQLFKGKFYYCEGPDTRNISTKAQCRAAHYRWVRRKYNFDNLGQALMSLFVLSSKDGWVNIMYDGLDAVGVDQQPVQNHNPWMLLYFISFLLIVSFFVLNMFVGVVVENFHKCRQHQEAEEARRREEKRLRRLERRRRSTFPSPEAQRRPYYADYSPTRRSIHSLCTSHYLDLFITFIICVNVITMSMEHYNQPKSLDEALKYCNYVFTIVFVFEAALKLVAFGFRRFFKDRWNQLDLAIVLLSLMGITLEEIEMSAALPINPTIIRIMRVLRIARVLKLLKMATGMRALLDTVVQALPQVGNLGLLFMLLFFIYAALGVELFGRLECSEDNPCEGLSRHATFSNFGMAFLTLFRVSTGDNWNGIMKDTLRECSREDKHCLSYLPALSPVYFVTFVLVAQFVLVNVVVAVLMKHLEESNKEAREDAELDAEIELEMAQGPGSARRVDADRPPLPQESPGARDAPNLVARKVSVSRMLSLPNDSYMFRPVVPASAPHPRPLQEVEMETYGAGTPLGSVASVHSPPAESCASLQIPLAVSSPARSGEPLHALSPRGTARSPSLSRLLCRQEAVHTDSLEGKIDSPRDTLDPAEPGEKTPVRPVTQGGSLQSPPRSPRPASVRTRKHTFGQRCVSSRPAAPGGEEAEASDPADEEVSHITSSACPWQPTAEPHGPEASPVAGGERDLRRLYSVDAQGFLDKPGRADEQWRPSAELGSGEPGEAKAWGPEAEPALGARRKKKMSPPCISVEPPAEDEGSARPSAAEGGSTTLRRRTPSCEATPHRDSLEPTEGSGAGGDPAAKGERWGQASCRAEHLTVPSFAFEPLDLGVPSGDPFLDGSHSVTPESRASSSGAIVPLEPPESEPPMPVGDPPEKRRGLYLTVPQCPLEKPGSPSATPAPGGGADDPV", "experiment": "FLIPR calcium flux assay, Cav3.2", "format": "cell-based"}, "[1]": {"tested_on": "6 Hz-induced seizures in Swiss mice", "experiment": "6 Hz seizure model in mice", "format": "in vivo, mouse", "experimental": "Swiss outbred mice used in 6 Hz seizure experiments were purchased from Australian Resources Centre (stock ARC(S); Canning Vale, Australia) and single housed for 1 week prior to experimentation to prevent fighting.\n6 Hz seizures were induced in Swiss male mice (9–10 weeks old) using an Ugo Basile electroconvulsive therapy unit (Model 57,800; Gemonio, Italy). Mice were pre-treated with vehicle, SB2193 (10 mg/kg, 30 mg/kg, 100 mg/kg) or valproic acid (300 mg/kg) via i.p. injection 15 min before seizure induction based on the time-to-peak brain concentration determined in pharmacokinetic studies. […] A drop of 0.5% tetracaine was applied to both corneas immediately following the i.p. injection to provide local anaesthesia. Immediately prior to the electrical stimulation, saline was applied to each cornea to ensure electrical conductivity. Corneal electroshocks were administered at 44 mA, 6 Hz, 3 s shock duration, with a […] rectangular pulse width. Mice were shocked and scored by an observer blinded to treatment for the presence of twitching of the vibrissae, stun, myoclonus, rearing, forelimb clonus, and/or Straub tail. […] The ED50 for SB2193 was calculated using computer-assisted log-probit linear regression analysis ([Litchfield and Wilcoxon, 1949]). A χ^2 test was performed to assess statistical significance."}, "[2]": {"tested_on": "Genetic Absence Epilepsy Rat from Strasbourg (GAERS)", "experiment": "Spike-and-wave discharges (EEG) in GAERS", "format": "in vivo", "experimental": "GAERS experiments were conducted in accordance with the standards of the Canadian Council on Animal Care and approved by the University of Saskatchewan Animal Research Ethics Board (protocol 20130118). GAERS were initially sourced from the University of Melbourne to establish a Canadian GAERS colony in 2010 ([Powell et al., 2014]) and weanlings were provided by the Snutch Laboratory at the University of British Columbia to the University of Saskatchewan in 2013 (snutchlab.msl.ubc.ca) ([Marks et al., 2016]; [Marks et al., 2019]). GAERS were maintained on a 12 h light/dark cycle with lights on at 0700 and access to food and water ad libitum except during EEG recordings.\nGAERS display reliable spike and wave discharges (SWD) characteristic of childhood absence epilepsy (CAE) ([Tringham et al., 2012]; [Marks et al., 2019]; [Roebuck et al., 2021]; [McElroy et al., 2022]; [Roebuck et al., 2022]). Experiments were conducted in male (n = 11; two removed due to poor recording integrity) and female (n = 5) GAERS. Group sizes were determined based on previous experiments and availability of age, sex, and litter matched animals ([Marks et al., 2019]; [McElroy et al., 2022]; [Roebuck et al., 2022]). Animals were well handled and habituated to the recording protocol prior to testing. Baseline recordings were performed prior to sessions with drug treatment and SB2193 (10, 30, 100 mg/kg) or vehicle (5 mL/kg) was administered (i.p.) ∼15–20 min prior to recordings using a within-subjects design (5–7 days washout periods between treatments). SB2193 was freshly prepared in ethanol-Kolliphor (Sigma Aldrich)-saline (1:1:18 ratio).\nConstruction and implantation of electrodes proceeded according to established protocols ([Farrell et al., 2018]; [Marks et al., 2019]; [McElroy et al., 2022]; [Roebuck et al., 2022]). Surgeries were performed under isoflurane anaesthesia with buprenorphine, anafen, and bupivicaine (topical) used as analgesics. Bipolar electrodes were chronically implanted bilaterally in somatosensory cortex (A/P 0.6 mm, M/L 5.5 mm, D/V −3.0 mm, relative to bregma) ([Polack et al., 2007]). Implants were secured with 3.2 mm stainless steel screws (one served as a ground) and dental cement. Animals were given a 1-week recovery period before habituation and testing.\nFollowing recovery from surgery, animals were handled for 3–4 days and habituated to the EEG tether and hook-up process at least once before baseline recordings. Local field potentials (LFP) were acquired by tethered EEG (Grass Technologies), amplified 5,000x, and digitized at 100 Hz ([Farrell et al., 2018]; [Marks et al., 2019]; [McElroy et al., 2022]; [Roebuck et al., 2022]). Recordings (4 h) were conducted in two clear Plexiglas boxes (32 cm × 32 cm) and treatments were randomized such that each animal received each treatment. During recording sessions, animals were prevented from sleeping with gentle taps on the chamber door as necessary. Animals were perfused to confirm electrode placement following testing.\nSWDs were analysed using a custom MATLAB (MathWorks) script developed by Dr. Stuart Cain and Jeff LeDue at the University of British Columbia. SWDs were assessed between 7 and 12 Hz and defined as bursts > 3x baseline amplitude >0.5 s as previously described ([Powell et al., 2014]; [Farrell et al., 2018]; [Marks et al., 2019]; [Roebuck et al., 2021]; [McElroy et al., 2022]; [Roebuck et al., 2022]). SWDs were analysed semi-automatically using Matlab and manually confirmed by a researcher blinded to treatment. A second researcher re-analysed a subset of files and interrater reliability was confirmed. Treatment data are normalized to initial non-treatment baseline data (e.g., % change) to account for SWD variability between subjects. Raw SWD data are also reported for comparison.\nTime-binned data were analysed using a two-way analysis of variance (ANOVA) with factors of treatment (vehicle, 10, 30, 100 mg/kg SB2193) and time (1, 2, 3, 4 h post-treatment). […]"}, "[3]": {"experiment": "Aqueous solubility (dosing observation)", "format": "physicochemical", "conditions": "prevented assessment at doses above 100 mg/kg", "experimental": "SB2193 and SB2193F were prepared in ethanol-Tween 80%–0.9% saline (1:1:18 ratio) and valproic acid in 0.9% saline. All doses were completely soluble in this vehicle except for the 100 mg/kg SB2193 dose, which was a suspension."}, "[4]": {"conditions": "100 mg/kg i.p., 4 h EEG recording"}, "[5]": {"conditions": "30 and 100 mg/kg i.p., 4 h EEG recording"}},
  "data": [
    {"smiles": "CCCCCn1cc(C(=O)N2CCN(C(=O)OC(C)(C)C)CC2)c2ccccc21", "note": "[SB2193]", "values": [
      {"measurement": "IC50", "setting": "human Cav3.2", "result": 5.9, "unit": "µM"},
      {"measurement": "percentage of mice protected from seizures compared to vehicle", "setting": "[1]; 100 mg/kg i.p., 15 min before 6 Hz 44 mA stimulation, n = 10", "result": "significantly increased"},
      {"measurement": "ED50", "setting": "[1]; Mus musculus, ip, log-probit analysis, estimated", "result": "~120", "unit": "mg/kg"},
      {"measurement": "SWD incidence, raw count data, compared to vehicle", "setting": "[2]; 30 mg/kg i.p., 4 h EEG recording", "result": "significantly increased"},
      {"measurement": "SWD average duration, raw data, compared to vehicle", "setting": "[2]; [4]", "result": "significantly increased"},
      {"measurement": "average SWD duration, normalized to baseline, compared to vehicle", "setting": "[2]; [4]", "result": "increased"},
      {"measurement": "SWD frequency", "setting": "[2]; 10, 30, 100 mg/kg i.p., 4 h EEG recording", "result": "No changes"},
      {"measurement": "effects on SWDs in the first hour following administration", "setting": "[2]; 10, 30, 100 mg/kg i.p., first hour", "result": "No significant effects"},
      {"measurement": "SWD (total) duration, normalized to baseline, compared to vehicle", "setting": "[2]; [5]", "result": "significantly increased"},
      {"measurement": "SWD incidence, normalized to baseline, compared to vehicle", "setting": "[2]; [5]", "result": "significantly increased"},
      {"measurement": "SWD total duration, raw data, compared to vehicle", "setting": "[2]; [5]", "result": "significantly increased"},
      {"measurement": "aqueous solubility", "setting": "[3]", "result": "poor aqueous solubility"}
    ]}
  ]
}
